From patent publication US9549914B2, “Treatment of human cytomegalovirus by modulating Wnt” (priority 2014, dated 2017)
Where two headings read alike, the source gives them in different places.

Assays:
HCMV [1] = assay: Reversibility of HCMV inhibition, real-time PCR in supernatants; format: cell-based, Human Cytomegalovirus (HCMV); settings: treated 1, 2 or 3 days, then fresh media; HCMV DNA in supernatants at day 6 post infection
Excerpt: FIG. 4: Effects of monensin, nigericin, salinomycin and GCV on replication characteristics. A. Reversibility of HCMV replication: Compounds were present in HCMV-infected HFFs at the indicated intervals in days. Virus DNA was quantified by real-time PCR in supernatants at 6 days post infection. Data represent mean values (±SD) of triplicate determinations from two independent experiments. B. Inhibition of DNA replication, pp28 expression and virus DNA yield: DNA replication was quantified by real-time PCR in cells collected 48 hpi. Pp28-luciferase activity was measured in cell lysates collected at 72 hpi. Virus DNA yield was measured by real-time PCR in supernatants of infected cells collected at 96 hpi. The concentration of compounds was: 0.1 μM for monensin and nigericin, 1 μM for salinomycin and 10 μM for GCV. Data represent mean values (±SD) of triplicate determinations from two independent experiments.
The quantitative CMV real-time PCR assay is based on detection of a 151 bp region from the highly conserved US17 gene (16). The limit of detection of the assay is 100 copies/mL (3.0 copies/reaction), and the measurable range is 2.4-8.0 log10 copies/mL. The PCR was performed using a total reaction volume of 50 μL, including TaqMan 2× Universal PCR Master Mix (Applied Biosystems, Foster City, Calif.), primers (300 nM final concentration), FAM-labeled probe (200 nM final concentration), dH2O, and template (10 μl). Amplification was performed on a 7500 Real-Time PCR System (Applied Biosystems, Foster City, Calif.). PCR conditions were: 50° C. for 2 min, 95° C. for 10 min, 40 cycles of 95° C. for 15 s and 60° C. for 60 s. Quantification standards were prepared by cloning the US17 amplicon in the pCR®2.1-TOPO® plasmid vector (Invitrogen, Carlsbad, Calif.). Serial 10-fold dilutions of plasmid from 7.0 to 1.0 log10 copies/reaction were included with each assay and used to establish a standard curve. The slope and R^2 of the standard curve were −3.3±0.1 and >0.990, respectively. Assay controls included quantified CMV AD 169 DNA (Advanced Biotechnologies Inc.) and quantified Towne CMV at 3.0 and 5.0 log10 copies/mL. Quantitative CMV data were expressed as viral DNA copies per milliliter. The real-time PCR was used for quantification of HCMV replication in cell lysates at 48 hpi, virus DNA yield in supernatants at 96 hpi and for a reversibility assay (14, 16).
To test whether HCMV inhibition by monensin, nigericin and salinomycin was reversible, infected HFFs were treated for 1, 2, or 3 days followed by removal of the media containing the compounds, and adding fresh media until 6 days post infection. HCMV DNA was quantified in supernatants of infected cells at day 6 post infection by real-time PCR.

in vitro [2] = settings: human
Method: (§3) Cell viability was determined using a colorimetric MTT cell proliferation assay following manufacturer's instructions (Sigma-Aldrich, St. Louis, Mo.). HFFs were treated with varying concentrations of monensin, nigericin, and salinomycin and incubated at 37° C. for 3 days. After the addition of 20 μl/well of MTT (3-(4,5-Dimethyl-2-thiazolyl)-2,5-diphenyl-2H-tetrazolim bromide) (5 mg/ml in PBS), and shaking at 150 rpm for 5 minutes the plates were incubated at 37° C. for 3 hours. Conversion of yellow solution into dark blue formazan by mitochondrial dehydrogenases of living cells was quantified by measuring absorbance at 570 nm. Viable cells in culture medium containing vehicle alone (0.1% DMSO) were referred to as 100% cell viability. For each cell type used for virus infection and drug treatment, the MTT assay was performed at the same time points as the antiviral assay.

[3] = tested on: GCV-resistant HCMV strain (UL97 mutation H520Q); assay: GCV-resistant HCMV strain, virus DNA yield by real-time PCR; format: cell-based, Human Cytomegalovirus (HCMV); settings: Human betaherpesvirus 5, read-out: EC50 against GCV-resistant HCMV strain
Method: HFFs cells were infected with a GCV-resistant HCMV and treated with monensin (0.01 μM-1 μM), nigericin (0.005 μM-0.5 μM), salinomycin (0.03 μM-10 μM) or GCV (1 μM-30 μM). Virus DNA yield was quantified by real-time PCR in supernatants of infected cells 96 hpi. Data represent mean values (±SD) of triplicate determinations from two independent experiments.
The quantitative CMV real-time PCR assay is based on detection of a 151 bp region from the highly conserved US17 gene (16). The limit of detection of the assay is 100 copies/mL (3.0 copies/reaction), and the measurable range is 2.4-8.0 log10 copies/mL. […] Quantification standards were prepared by cloning the US17 amplicon in the pCR®2.1-TOPO® plasmid vector (Invitrogen, Carlsbad, Calif.). […] Assay controls included quantified CMV AD 169 DNA (Advanced Biotechnologies Inc.) and quantified Towne CMV at 3.0 and 5.0 log10 copies/mL. Quantitative CMV data were expressed as viral DNA copies per milliliter. The real-time PCR was used for quantification of HCMV replication in cell lysates at 48 hpi, virus DNA yield in supernatants at 96 hpi and for a reversibility assay (14, 16).

[4] = tested on: pp28-luciferase HCMV Towne strain; assay: microbe, parasite or virus in culture; format: cell-based, Human Cytomegalovirus (HCMV); settings: for SI (selectivity index): HCMV in HFFs, mean ± SD; for EC50: Human betaherpesvirus 5, read-out: EC50 (μM), anti-HCMV activity
Method: The pp28-luciferase HCMV Towne strain was constructed as previously described (14). This virus expresses luciferase under the control of the late CMV gene promoter, pp28. Luciferase expression is strongly activated 48-72 hours post infection (hpi). […] A GCV-resistant HCMV strain was obtained from a patient with CMV disease. […] Human herpes virus strains were: luciferase HSV1-KOS/Dlux/oriS (15) and clinical isolates of HSV1 and HSV2. All clinical isolates were provided by the clinical virology laboratory with no identifiers that can link to a specific subject. The Johns Hopkins Office of Human Subject Research Institutional Review Board determined that this research qualified for an exemption.
Human Foreskin Fibroblasts (HFFs) passage 12-16 (ATCC, CRL-2088™) were grown in Dulbecco's Modified Eagle Medium (DMEM) containing 10% fetal bovine serum (FBS) (Gibco, Carlsbad, Calif.) in a 5% CO2 incubator at 37° C. and used for infection with HCMV or HSV at multiplicity of infection of 1 PFU/cell (MOI=1) unless otherwise specified. Following 90 minute adsorption (60 min for HSV), media was removed and cells were washed with PBS. DMEM with 4% FBS containing compounds was added to each well. For HCMV, infected, treated HFFs were collected at 72 hpi and lysates were assayed for luciferase activity using a luciferase assay kit (Promega, Madison, Wis.) on GloMax®-Multi+ Detection System (Promega) according to manufacturer's instructions.

in vitro [5] = settings: human; remark: listed apart in the source
Method: as §3

in vitro [6] = settings: human; remark: listed apart in the source
Method: as §3

[7] = tested on: luciferase HSV1-KOS/Dlux/oriS; assay: HSV1-KOS/Dlux/oriS yield reduction assay in HFFs; format: cell-based; settings: Human alphaherpesvirus 1, 16 h, read-out: HSV1 EC50 (μM) Yield Reduction (HFFs)
[8] = tested on: Wnt/β-catenin signaling proteins; assay: Western blot of Wnt/β-catenin signaling proteins in HSV1-infected HFFs; format: cell-based, Human; settings: 48 hpi with HSV1-KOS (Dlux/OriS), concentrations resulting in full HCMV inhibition
Method: FIG. 7: Effect of monensin, nigericin and salinomycin on expression of Wnt/β-catenin signaling proteins in non-infected and HSV1-infected HFFs. FIG. 7A: Expression of Wnt5a/b, Axin1, β-catenin, and actin (control) in non-infected (Mock), and HSV1-infected HFFs (MOI=0.1) treated with monensin (0.1 μM), nigericin (0.1 μM), salinomycin (1 μM) and GCV (10 μM) was determined after 48 h. Representative data from three independent experiments is shown. FIG. 7B: Expression of Wnt5a/b, Axin1, β-catenin, and actin (control) in non-infected (Mock), and HSV1-infected HFFs (MOI=0.1) treated with monensin (0.2 μM), nigericin (0.2 μM) and salinomycin (2 μM) and GCV (10 μM) was determined after 48 h. Representative data from three independent experiments is shown.
(§1) Cell lysates were quantified for protein content using bicinchoninic acid (BCA) protein assay kit (Pierce Chemical, Rockford, Ill.). Equivalent amount of proteins were mixed with an equal volume of 2× sample buffer (125 mM Tris-HCL, pH 6.8, 4% SDS, 20% glycerol and 5% β-mercaptoethanol) and boiled at 100° C. for 10 min (except for Wnt and pWnt detection for which samples were not boiled). Denatured proteins were resolved in Tris-glycine polyacrylamide gels (10-12%) and transferred to polyvinylidine difluoride (PVDF) membranes (Bio-Rad Laboratories, Hercules, Calif.) by electroblotting. Membranes were incubated in blocking solution [5% non-fat dry milk and 0.1% Tween-20 in PBS (PBST)] for 1 hr, washed three times with PBST, and incubated with appropriately diluted primary antibodies at 4° C. overnight. Membranes were washed with PBST and incubated with horseradish peroxidase-conjugated secondary antibodies in PBST for 1 hr at room temperature. Following washing with PBST, protein bands were visualized by chemiluminescence using SuperSignal West Dura and Pico reagents (Pierce Chemical, Rockford, Ill.). The following antibodies were used for detection of CMV proteins: mouse anti-IE1 and IE2, (MAb810); mouse anti-beta-actin antibody (Millipore, Billerica, Mass.); mouse anti-UL44 (Santa Cruz biotechnology Santa Cruz, Calif.); mouse anti-pp65 (Vector laboratories, Burlingame, Calif.); horseradish peroxidase (HRP)-conjugated anti-rabbit IgG (Cell Signaling Technology, Beverly, Mass.); and HRP-conjugated anti-mouse IgG, (GE Healthcare, Waukesha, Wis.). The following antibodies were used for detection of proteins in the Wnt pathway: anti-Wnt5a/b, Wnt, phospho-Wnt, Dvl2, Dvl3 and axin1 (Cell Signaling), β-catenin (E-5) (Santa Cruz biotechnology).

[9] = tested on: Wnt/β-catenin signaling proteins; assay: Western blot of Wnt-signaling proteins in non-infected and HCMV-infected HFFs; format: cell-based, Human; settings: 100 nM
Method: (§2) FIG. 5: Effect of Nigericin and GCV on expression of HCMV and Wnt/β-catenin signaling proteins. A. Expression of HCMV proteins in infected HFFs treated with nigericin (100 nM) and GCV (10 μM). Compounds were added after virus adsorption and cell lysates were collected for western blot at 24, 48 and 72 hpi. Control-no treatment. B. Expression of Wnt-signaling proteins was determined in non-infected (Mock), and HCMV-infected HFFs treated with nigericin (100 nM) and GCV (10 μM) at indicated time points. Representative data from three independent experiments are shown.
as §1

[10] = tested on: HCMV proteins (IE1, IE2, UL44, pp65); assay: Western blot of HCMV proteins in infected HFFs; format: cell-based, Human Cytomegalovirus (HCMV)
Method: as §2, §1

HCMV [11] = assay: HCMV yield reduction (infectious virus released into medium, plaques); format: cell-based, Human Cytomegalovirus (HCMV)
HSV2 clinical isolates = assay: HSV2 plaque assay in Vero cells; format: cell-based; settings: read-out: HSV2 EC50 (μM) Plaque Number (Vero)
HSV1 clinical isolates = assay: HSV1 plaque assay in Vero cells; format: cell-based; settings: read-out: HSV1 EC50 (μM) Plaque Number (Vero)
[12] = non-infected and HCMV-infected HFFs, all time points (24, 48, 72 hpi)
[13] = infected HFFs treated at 0.1 μM
[14] = Human alphaherpesvirus 2, 48 h, Vero cells, 200 PFU/well, plaques counted after 2 days
[15] = Human alphaherpesvirus 1, 48 h, Vero cells, 200 PFU/well, plaques counted after 2 days

| Compound | reversibility of HCMV inhibition (HCMV [1]) | CC50 at 3 days (in vitro [2]) [nM] | SI (selectivity index) [4] | EC50 [4] [µM] | EC50 [7] [µM] | expression of Wnt 5a/b in HSV1-infected HFFs [8] | expression of axin 1 in HSV1-infected HFFs [8] | expression of β-catenin in HSV1-infected HFFs [8] | infectious virus released into the medium (yield reduction), plaques (HCMV [11]; [13]) | EC50 (HSV2 clinical isolates; [14]) [µM] | EC50 (HSV1 clinical isolates; [15]) [µM] | further results |
| --- | --- | --- | --- | --- | --- | --- | --- | --- | --- | --- | --- | --- |
| Nc1nc(O)c2ncn(COC(CO)CO)c2n1 [GCV, ganciclovir] | fully reversible | 247000 ± 33400 | 96 ± 14 | 2.7 ± 0.1 | – | – | – | – | – | – | – | EC50 [3]: 7600 nM; CC50 (in vitro [5]): > 100000 nM; CC50 (in vitro [6]): > 100000 nM |
| CO[C@@H]1C[C@@H](C[C@H]2CC[C@H](C)[C@H]([C@@H](C)C(=O)O)O2)O[C@]2(O[C@](C)([C@H]3CC[C@@](C)([C@@H]4O[C@@H]([C@H]5O[C@@](O)(CO)[C@H](C)C[C@@H]5C)C[C@@H]4C)O3)C[C@H]2C)[C@@H]1C [Nigericin, nigericin] | weak irreversible inhibition | 3350 ± 770 | 139 ± 23 | 0.02 | 0.08 | inhibition | did not reduce | did not reduce | complete absence of plaques | 0.16 ± 0.05 | 0.63 | β-catenin levels ([9]; effect increased from 24 to 48 and 72 hpi): significant decrease; expression of Wnt [9, 12]: decreased expression; expression of Wnt 5a/b [9, 12]: decreased expression; expression of axin 1 [9, 12]: decreased expression; expression of pWnt [9, 12]: decreased expression; expression of the late HCMV gene pp65 ([10]; 100 nM): significant inhibition; IE1 expression ([10]; 100 nM, 24, 48 and 72 hpi): no obvious inhibition; IE2 expression ([10]; 100 nM, 24, 48 and 72 hpi): major inhibition; UL44 expression ([10]; 100 nM, 24, 48 and 72 hpi): major inhibition |
| CC[C@@H](C(=O)[C@@H](C)[C@@H](O)[C@H](C)[C@@H]1O[C@@H]([C@@H](CC)C(=O)O)CC[C@@H]1C)[C@H]1O[C@]2(C=C[C@@H](O)[C@]3(CC[C@@](C)([C@H]4CC[C@](O)(CC)[C@H](C)O4)O3)O2)[C@H](C)C[C@@H]1C [Salinomycin, salinomycin] | fully reversible | 28400 ± 5900 | 143 ± 18 | 0.2 ± 0.01 | 0.6 ± 0.1 | inhibition | did not reduce | did not reduce | – | – | – | infectious virus released into the medium (yield reduction), plaques (HCMV [11]; infected HFFs treated at 1 μM): complete absence of plaques; EC50 (HSV2 clinical isolates; Human alphaherpesvirus 2, Vero, 48 h): 0.07 ± 0.03 µM; EC50 (HSV1 clinical isolates; Human alphaherpesvirus 1, Vero, 48 h): 0.58 ± 0.07 µM |
| CC[C@@]1([C@@H]2O[C@@H]([C@H]3O[C@@](O)(CO)[C@H](C)C[C@@H]3C)C[C@@H]2C)CC[C@H]([C@]2(C)CC[C@]3(C[C@H](O)[C@@H](C)[C@@H]([C@@H](C)[C@@H](OC)[C@H](C)C(=O)O)O3)O2)O1 [Monensin] | weak irreversible inhibition | 3370 ± 520 | 138 ± 14 | 0.02 | 0.08 | inhibition | did not reduce | did not reduce | complete absence of plaques | 0.34 ± 0.04 | 1.6 ± 0.14 | – |
